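Method: 48-hour compound exposure of cells in 96-well plates, five concentrations, linear interpolation of endpoints. GI50 marks 50% less growth.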 Calls of active or inactive are those of the source. Cut-off read from the data, not from the text of the source: active = GI50 up to about 1.1 µM and inactive = higher.
What was measured:
Experiment in all cases: inhibition of tumour cell growth, NCI panel, 48 h
[1] = tested on: SNB-75
[2] = tested on: HT-29
[3] = tested on: SK-MEL-28
[4] = tested on: BT-549
[5] = tested on: SK-OV-3
[6] = tested on: SK-MEL-5
[7] = tested on: OVCAR-8
[8] = tested on: EKVX
[9] = tested on: DU-145
[10] = tested on: MDA-MB-435
[11] = tested on: RXF 393
[12] = tested on: OVCAR-5
[13] = tested on: NCI-H23
[14] = tested on: NCI-H522
[15] = tested on: MCF7
[16] = tested on: CCRF-CEM
[17] = tested on: ACHN
[18] = tested on: T47D
[19] = tested on: NCI/ADR-RES
[20] = tested on: U-251
[21] = tested on: HL-60
[22] = tested on: OVCAR-4
[23] = tested on: HCT-116
[24] = tested on: SN12C
[25] = tested on: NCI-H460
[26] = tested on: HOP-62
[27] = tested on: CAKI-1
[28] = tested on: SR
[29] = tested on: MDA-MB-231
[30] = tested on: UACC-62
[31] = tested on: K562
[32] = tested on: UO-31
[33] = tested on: M14
[34] = tested on: KM12
[35] = tested on: MDA-N
[36] = tested on: TK-10
[37] = tested on: SF-268
[38] = tested on: Hs-578T
[39] = tested on: PC-3
[40] = tested on: Malme-3M
[41] = tested on: SF-295
[42] = tested on: NCI-H226
[43] = tested on: HCT-15
[44] = tested on: SNB-19
[45] = tested on: LOX IMVI
[46] = tested on: COLO 205
[47] = tested on: 786-0
[48] = tested on: MOLT-4
[49] = tested on: OVCAR-3
[50] = tested on: A549
[51] = tested on: IGROV-1
[52] = tested on: UACC-257
[53] = tested on: SF-539
[54] = tested on: A498
[55] = tested on: RPMI-8226
[56] = tested on: HOP-92
[57] = tested on: HCC 2998
[58] = tested on: SK-MEL-2
[59] = tested on: SW-620

Measured: GI50

O=c1[nH]c(=O)n(C2CC(O)C(CO)O2)cc1/N=N/NCc1ccccc1 (stereo not given)
> 100 µM: [43]
inactive: [1] > 100 µM | [2] > 100 µM | [3] > 100 µM | [4] > 100 µM | [5] > 100 µM | [6] > 100 µM | [7] > 100 µM | [8] > 100 µM | [9] > 100 µM | [10] > 100 µM | [11] > 100 µM | [12] > 100 µM | [13] > 100 µM | [14] > 100 µM | [15] > 100 µM | [16] > 100 µM | [17] > 100 µM | [18] > 100 µM | [19] > 100 µM | [20] > 100 µM | [21] > 100 µM | [22] > 100 µM | [23] > 100 µM | [24] > 100 µM | [25] > 100 µM | [26] > 100 µM | [27] > 100 µM | [28] > 100 µM | [29] > 100 µM | [30] > 100 µM | [31] > 100 µM | [32] > 100 µM | [33] > 100 µM | [34] > 100 µM | [35] > 100 µM | [36] > 100 µM | [37] > 100 µM | [38] > 100 µM | [39] > 100 µM | [40] > 100 µM | [41] 59 µM | [42] > 100 µM | [44] > 100 µM | [45] > 100 µM | [46] > 10 µM | [47] > 100 µM | [48] > 100 µM | [49] > 100 µM | [50] > 100 µM | [51] > 100 µM | [52] > 100 µM

C=CCc1[nH]c2c(OCc3ccccc3)cc(N(CC=C)C(C)=O)cc2c1C
inactive: [1] 10.7 µM | [2] 8.04 µM | [3] 16.9 µM | [4] 15.8 µM | [5] 16.4 µM | [6] 11.8 µM | [7] 13.2 µM | [8] 8.45 µM | [9] 14.1 µM | [10] 17.1 µM | [11] 11.2 µM | [12] 14.1 µM | [13] 13.9 µM | [53] 16.3 µM | [14] 13 µM | [15] 12.4 µM | [16] 22.3 µM | [17] 12.8 µM | [18] 3.79 µM | [19] 14.3 µM | [20] 12.8 µM | [54] 12.5 µM | [55] 12.1 µM | [21] 12.8 µM | [22] 8.79 µM | [23] 12.3 µM | [24] 16 µM | [25] 14.8 µM | [26] 17.1 µM | [27] 15.5 µM | [29] 10.7 µM | [30] 14 µM | [31] 10.1 µM | [32] 9.08 µM | [33] 10.1 µM | [34] 13.3 µM | [35] 14.4 µM | [36] 16.4 µM | [56] 12.7 µM | [57] 15.1 µM | [37] 12.2 µM | [38] 14.2 µM | [39] 6.76 µM | [40] 16.4 µM | [41] 13 µM | [58] 12.4 µM | [42] 17.6 µM | [59] 13.9 µM | [44] 12.8 µM | [45] 12.5 µM | [46] 15.2 µM | [47] 14.2 µM | [48] 5.77 µM | [49] 14.3 µM | [50] 13.4 µM | [51] 14.4 µM | [52] 16 µM
12.9 µM: [43]

C/C=C1/CN2CCC3(O)c4ccccc4N4C=C(C(=O)OC)C1CC2C43O (stereo not given)
> 100 µM: [43]
inactive: [1] > 100 µM | [2] > 100 µM | [3] > 100 µM | [4] > 100 µM | [5] > 100 µM | [6] > 100 µM | [7] > 100 µM | [8] > 100 µM | [9] > 100 µM | [10] > 100 µM | [12] > 100 µM | [13] > 100 µM | [53] > 100 µM | [14] > 100 µM | [15] > 100 µM | [16] > 100 µM | [17] > 100 µM | [18] > 100 µM | [19] > 100 µM | [20] > 100 µM | [55] > 100 µM | [21] > 100 µM | [22] > 100 µM | [23] > 100 µM | [24] > 100 µM | [25] > 100 µM | [26] > 100 µM | [27] > 100 µM | [28] > 100 µM | [29] > 10 µM | [30] > 100 µM | [31] 81.5 µM | [32] > 100 µM | [33] > 100 µM | [34] > 100 µM | [35] > 100 µM | [36] > 100 µM | [56] > 100 µM | [57] > 100 µM | [37] > 100 µM | [38] > 100 µM | [39] > 100 µM | [40] > 100 µM | [41] > 100 µM | [59] > 100 µM | [44] > 100 µM | [45] > 100 µM | [46] > 100 µM | [47] > 100 µM | [48] 84.1 µM | [49] > 100 µM | [50] > 100 µM | [51] > 100 µM | [52] > 100 µM

— ChEMBL document CHEMBL1201862, “PubChem BioAssay data set” (2004)
